Experimental data published in US9522198B2, “Methods and compositions related to targeting tumors and wounds” (Sanford-Burnham Medical Research Institute, priority 2006, dated 2016).
Entries after “also recorded” stand apart in the source; their conditions may differ. Ends that are not written are not given here.

Tests used:
fibrinogen = target: T1, fibrinogen (Homo sapiens, UniProt P02671+P02675+P02679); conditions: reported, Akerman, Pilch et al. 2005; cited from earlier work
T1 sequence (P02671 20-629 limits assumed): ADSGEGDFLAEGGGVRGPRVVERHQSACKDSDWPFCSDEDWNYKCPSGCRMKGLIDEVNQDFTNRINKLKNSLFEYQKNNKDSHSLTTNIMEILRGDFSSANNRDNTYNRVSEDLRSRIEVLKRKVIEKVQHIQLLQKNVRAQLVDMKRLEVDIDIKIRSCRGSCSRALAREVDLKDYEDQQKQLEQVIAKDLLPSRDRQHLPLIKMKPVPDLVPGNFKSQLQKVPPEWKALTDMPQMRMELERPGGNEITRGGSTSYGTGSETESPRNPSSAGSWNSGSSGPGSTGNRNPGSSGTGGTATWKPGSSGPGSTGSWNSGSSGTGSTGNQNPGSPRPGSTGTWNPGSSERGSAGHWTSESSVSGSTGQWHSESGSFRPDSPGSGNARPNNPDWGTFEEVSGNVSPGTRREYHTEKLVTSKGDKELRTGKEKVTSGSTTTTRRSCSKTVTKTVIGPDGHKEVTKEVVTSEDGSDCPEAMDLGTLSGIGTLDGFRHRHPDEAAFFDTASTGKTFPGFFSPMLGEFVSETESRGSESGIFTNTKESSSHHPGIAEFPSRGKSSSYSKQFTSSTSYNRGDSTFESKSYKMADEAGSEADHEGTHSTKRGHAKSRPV
T1 sequence (P02675 31-491): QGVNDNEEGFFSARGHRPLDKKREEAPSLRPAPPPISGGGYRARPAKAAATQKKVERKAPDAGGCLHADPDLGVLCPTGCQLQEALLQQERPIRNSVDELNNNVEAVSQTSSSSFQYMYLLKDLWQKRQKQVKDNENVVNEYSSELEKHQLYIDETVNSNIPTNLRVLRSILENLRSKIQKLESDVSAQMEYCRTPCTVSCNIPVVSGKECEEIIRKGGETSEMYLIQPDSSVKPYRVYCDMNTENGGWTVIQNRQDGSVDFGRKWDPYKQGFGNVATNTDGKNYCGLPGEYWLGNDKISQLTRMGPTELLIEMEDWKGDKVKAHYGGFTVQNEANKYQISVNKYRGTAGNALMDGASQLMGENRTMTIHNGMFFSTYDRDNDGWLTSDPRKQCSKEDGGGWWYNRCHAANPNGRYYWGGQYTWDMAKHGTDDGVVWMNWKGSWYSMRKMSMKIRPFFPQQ
T1 sequence (P02679 27-453): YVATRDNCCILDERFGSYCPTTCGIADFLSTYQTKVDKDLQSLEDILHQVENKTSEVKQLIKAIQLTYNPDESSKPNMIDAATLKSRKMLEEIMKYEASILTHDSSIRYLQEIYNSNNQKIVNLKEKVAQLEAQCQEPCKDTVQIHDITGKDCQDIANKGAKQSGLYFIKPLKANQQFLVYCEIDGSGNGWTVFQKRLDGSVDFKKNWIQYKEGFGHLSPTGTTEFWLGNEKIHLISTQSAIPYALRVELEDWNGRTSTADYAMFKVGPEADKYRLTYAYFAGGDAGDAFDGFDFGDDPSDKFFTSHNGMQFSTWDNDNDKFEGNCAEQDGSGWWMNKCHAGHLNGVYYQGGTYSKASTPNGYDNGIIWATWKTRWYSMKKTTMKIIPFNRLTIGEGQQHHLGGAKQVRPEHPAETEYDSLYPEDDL

fibronectin = conditions: reported, Akerman, Pilch et al. 2005; cited from earlier work
skin = assay: Homing to skin incision; format: in vivo, mouse
Method: (§1) The wire injury of the mouse femoral artery was induced as previously described (Komatsu, M. & Ruoslahti, E. (2005) Nat Med. (2005) 11:1346-1350). Thirty minutes after the wire injury, 250 μg of fluorescein-conjugated peptides were injected i.v. Muscle injuries were induced in mice by applying a crush injury to the quadriceps muscle, and 500 μg fluorescein-conjugated peptides were injected i.v. 48 hours later. Skin incisions were studied similarly. The mice were perfused through the heart 4 hours after the peptide injection, and tissues were excised, fixed in 4% paraformaldehyde, and embedded in OCT.

quadriceps muscle = assay: Homing to muscle crush injury; format: in vivo, mouse
Method: as §1

[1] = system: orthotopic MDA-MB-435 xenograft tumors; assay: Tumor homing of i.v. injected fluorescein-conjugated peptides, MDA-MB-435 xenografts; format: in vivo, mouse
Source text: To determine whether the CLT peptides would recognize clotted plasma proteins in vivo, the peptides were synthesized as fluorescein conjugates and imaged their accumulation in tumors. Mice bearing orthotopic MDA-MB-435 xenograft tumors were intravenously injected with fluorescein-conjugated CLT1 (n=6), CLT2 (n=4), or a control peptide (n=4) with the sequence KAREC (SEQ ID NO: 5).
B16F1 mouse melanoma, Lewis lung carcinoma, C8161 human melanoma, MDA-MB-435 human breast cancer, and PPC-1 human prostate cancer cells (American Type Culture Collection) were maintained in RPMI or DMEM supplemented with 10% FCS. Human tumor cells (1×10^6) were injected into the mammary fat pad or the flank of nude BALB/c nu/nu mice to induce tumors. MMTV PyMT mice were provided by Dr. Robert Oshima (Burnham Institute for Medical Research, La Jolla, Calif.). The MMTV PyMT mice develop breast cancer under the influence of a polyoma middle T antigen driven by the mouse tumor virus promoter (Siegel, P. M., Ryan, E. D., Cardiff, R. D., Muller W. J. (1999) EMBO J., 18, 2149-64). B16F1 tumors induced by injecting 1×10^6 cells subcutaneously were grown in the flank of fibrinogen knock-out mice (Suh, T. T., Holmback, K., Jensen, N. J., Daugherty, C. C., Small, K., Simon, D. I., Potter, S., & Degen, J. L. (1995) Genes Dev. 9, 2020-2033), and of transgenic plasma fibronectin-deficient C57BL/6-Fn(f1/f1) Mx-Cre^+ (Sakai, T., Johnson, K. J., Murozono, M., Sakai, K., Magnuson, M. A., Wieloch, T., Cronberg, T., Isshiki, A., Erickson, H. P., & Fassler R. (2001) Nat. Med. 7, 324-30) and their wild type littermates. Deletion of the fibronectin gene in the liver was induced by poly(I):poly(C) (Yi, M., Sakai, T., Fassler, R., & Ruoslahti, E. (2003) Proc. Natl. Acad. Sci. USA. 100, 11435-11438). Frozen human tissues from clinical breast cancers were provided by the Western Division of the NCI Cooperative Human Tissue Network (Vanderbilt University Medical Center, Nashville, Tenn.).
Peptides were synthesized and conjugated to fluorescein isothiocyanate as described (Laakonen et al. PNAS 2004), and cyclized by exposure to air.
Imaging under a blue light, and examination of the distribution of fluorescein-conjugated peptides after tail vein injection have been described (Hoffman, R. M. (2005) Nature Reviews Cancer 5, 796-806; Laakkonen, P., Akerman, M. E., Biliran, H., Yang, M., Ferrer, F., Karpanen, T., Hoffman, R. M., & Ruoslahti E. (2004) Proc. Natl. Acad. Sci. USA 101, 9381-6).
The imaging methods are briefly described as follows: A Leica fluorescence stereomicroscope, model LZ12, equipped with a 50-W mercury lamp, was used for high-magnification imaging. Selective excitation of GFP was produced through a D425y60 band-pass filter and 470 DCXR dichroic mirror. Emitted fluorescence was collected through a long-pass filter GG475 (Chroma Technology, Brattleboro, Vt.) on a Hamamatsu C5810 3-chip cooled color charge-coupled device camera (Hamamatsu Photonics Systems, Bridgewater, N.J.). Images were processed for contrast and brightness and analyzed with the use of IMAGE PRO PLUS 3.1 software (Media Cybernetics, Silver Springs, Md.). Images of 1,024×724 pixels were captured directly on an IBM PC or continuously through video output on a high-resolution Sony VCR model SLV-R1000 (Sony, Tokyo). Imaging at lower magnification that visualized the entire animal was carried out in a light box illuminated by blue light fiber optics (Lightools Research, Encinitas, Calif.) and imaged by using the thermoelectrically cooled color charge-coupled device camera, as described above (Yang, M., Baranov, E., Jiang, P., Sun, F-X., Li, X-M., Li, L., Hasegawa, S., Bouvet, M., Al-Tuwaijri, M., Chishima, T., et al (2000) Proc. Natl. Acad. Sci. USA 97, 1206-11).
The mice were perfused through the heart 3 hours after the peptide injection and tissues removed for examination. […]

mouse femoral artery = assay: Homing to wire-injured femoral artery; format: in vivo
Method: as §1

[2] = system: human umbilical venous endothelial cells (HUVECs); format: cell-based; conditions: HUVECs
Source text: CLT1 contains a sequence of three consecutive hydrophobic residues, LII (leucine-isoleucine-isoleucine). This motif is very similar to the VII sequence (V, valine) which causes proteins to form large insoluble aggregates (Esteras-Chopo et al. 2005). […] The ability of CLT1 to aggregate proteins correlates with its cytotoxicity for human umbilical venous endothelial cells (HUVECs).

mitochondrial membranes = conditions: concentration of 10 μM; cited from earlier work
[3] = 500 μg fluorescein-conjugated peptide i.v., 3 h

## Anginex
fibrinogen
  aggregate formation in presence of fibrinogen: form aggregates
fibronectin
  aggregate formation in presence of fibronectin: form aggregates

## CNAGESSKNC (also: cyclic, ring type not given here, fluorescein conjugate, site not given here) [CLT2, cyclic decapeptide from phage library screened on plasma clots; tested as fluorescein conjugate]
skin; incision 48 hours earlier
  homing to skin incision: accumulate
skin; uninjured
  homing to normal skin: negative
Quadriceps muscle; injury 48 hours earlier, 500 μg i.v.
  homing to muscle crush injury: accumulate
Quadriceps muscle; uninjured
  homing to normal muscle: negative
[1]; [3]
  fluorescence in control / healthy organs: not in control organs
  fluorescence in tumors, whole tissues under blue light: intense fluorescence; also recorded: strong fluorescence
[1]; fluorescein-conjugated peptide i.v., 3 h, 400×
  histological distribution of peptide fluorescence within the tumor: distributed in a network pattern
[1]; unlabeled CLT2 in 5 fold excess
  tumor homing / fluorescence on co-injection with unlabeled CLT2: strongly reduced
Mouse femoral artery; uninjured
  homing to normal (intact) femoral artery: not to a normal femoral artery
Mouse femoral artery; wire injury 30 min earlier, 250 μg i.v.
  homing to injured femoral artery: homes
[2]
  cytotoxicity for endothelial cells: nor cytotoxic

## D(KLAKLAK)2 (KLAKLAKKLAKLAK; D-amino acids) [antimicrobial peptide]
Mitochondrial membranes
  mitochondrial swelling: marked mitochondrial swelling

## KAREC (also: fluorescein conjugate, site not given here) [reference compound]
[1]; [3]
  fluorescence in tumors, whole tissues under blue light: essentially no fluorescence
